Assay results as given in patent publication US20220372448A1, “CELL LINE AND PRODUCING METHOD THEREOF” (University of Yamanashi, priority 2021, published 2022).

Tested on: VeroE6/Rep #3 cells
Assay: MTS assay for cell survival rate of VeroE6/Rep #3 cells
Conditions: 72 hours, EIDD-2801 20 μM, library compounds 10 μM

CC(C)C(=O)OC[C@H]1O[C@@H](n2ccc(NO)nc2=O)[C@H](O)[C@@H]1O [EIDD-2801, molnupiravir]
cell proliferation / cell survival (MTS assay) compared with DMSO negative control: a decrease in cell proliferation was not observed
